The subject of this test is hearts of aged (18-22 month old) WT mice. Nature of the test: Reversal of age-induced cardiac fibrosis and inflammation in aged WT mice (histology, immunofluorescence, western blot). Type of test: in vivo, mouse. Conditions: aged (~20 month old) WT mice, 4 weeks, FIG. 19. The method, then:
There are 8 different sets of in vivo experiments in this study: • A) Phenotypic characterisation of the heart and blood vessels in global IRAP knockout mice and their WT controls treated for 4 weeks with Angiotensin (Ang) II (800 ng/kg/min; s.c.) where mouse hearts and blood vessels were compared to tissue obtained from young WT and IRAP^−/− mice treated with saline. • B) Prevention of Ang II-induced changes in the cardiovascular system following IRAP inhibitor treatment. In the prevention model, WT mice were treated with Ang II (800 ng/kg/min; s.c.)±the IRAP inhibitor (HFI-419; 500 ng/kg/min for 28 days) or HFI-vehicle (1 DMSO:3 HBC). • C) Phenotypic characterisation of the aged heart, kidney and blood vessels in the global IRAP knockout mice where aged WT and IRAP^−/− mouse hearts, kidneys and blood vessels were compared to tissue obtained from young WT and IRAP^−/− mice. • D) Reversal of the age-induced changes in the cardiovascular system following IRAP inhibitor treatment. In the reversal model, aged WT mice were treated with either saline, IRAP inhibitor (HFI-419 at 500 ng/kg/min; compound 1 at 500 ng/kg/min; compound 2 at 50 ng/kg/min) or HFI-vehicle (1 DMSO: 3 HBC) for 4 weeks. • E) Prevention of ischemic-reperfusion injury in isolated hearts taken from aged global IRAP knockout mice and aged IRAP inhibitor (HFI-419 at 500 ng/kg/min; s.c.) treated WT mice compared to age-matched vehicle-treated (1 DMSO:3 HBC; s.c.) WT controls. • F) Phenotypic characterization of cardiac function using echocardiography in the aged global IRAP knockout mice compared to aged and young WT mice. • G) Phenotypic characterization of liver steatosis in IRAP knockout mice in a high fat diet (HFD) model. • H) Reversal of the salt-induced fibrosis in the liver following IRAP inhibitor treatment.
All mice which underwent surgery were anaesthetized with Isoflurane (Isorrane) (5% induction and 2.5% maintenance) and an incision made in the midscapular region through which osmotic minipumps (Alzet model 2004, Alza Corp) were inserted for subcutaneous drug administration. The incision area was sutured with 6/0 DY silk (Dynek Pty Ltd) and antibiotic powder applied (Cicatrin, Pfizer) followed by intramuscular injection of the analgesic Cartrophen (0.1 ml of a 1.5 mg/ml stock solution; Biopharm Australia). Systolic blood pressure (SBP) was measured fortnightly using non-invasive tail-cuff plethysmography apparatus (MC4000 Blood Pressure Analysis System, Hatteras Instrument Inc) before drug treatment (week 0), at week 2 of treatment and end of treatment (week 4). At the end of drug treatment, body weight of mice was recorded. Mice were anaesthetized using Isoflurane inhalation and killed by cervical dislocation. Organs (heart, aorta, kidneys, brain, blood and tibia) were collected, with heart and aorta being dissected appropriately as described below. All organs were then snap frozen in liquid nitrogen, and stored at −80° C. if they were not used for vascular reactivity studies conducted on the day mice were killed.
To measure collagen deposition, frozen sections of heart, kidney or aorta (all 5 μm thickness) were air dried for 10 minutes and were brought through 3 times xylene (2 minutes each), and 3 times absolute alcohol washes before being rinsed in tap H2O for 30 seconds. Staining with an optimal concentration of picrosirius red (in this instance 0.05% picrosirius red diluted in saturated picric acid) was performed and left for an hour. Sections were then rinsed in water and differentiated in 0.01 M HCl for 2 minutes, followed by dehydration via 3 times absolute alcohol washes. Then, slides were brought through 3 times xylene washes before being cover slipped according to standard histological techniques using DPX as the mounting medium. […]
(In general: Immunoblotting shows a protein as a band on a membrane.)

Structures are written as SMILES.

On to `CC(=O)C1=C(C)OC(N)=C(C#N)C1c1ccc(C(=O)O)cc1.N` (centres unmarked) [Compound 1, 4-(3-acetyl-6-amino-5-cyano-2-methyl-4H-pyran-4-yl)benzoic acid], for which, for the setting “compound 1 at 500 ng/kg/min”, the “age-induced collagen expression in the heart (picrosirius red)” value is “reverse”.

As to `N[C@H]1CCSSC[C@@H](C(=O)NCc2ccccc2CC(=O)O)NC(=O)C[C@H](Cc2ccc(O)cc2)NC1=O` [Compound 2], the “age-induced collagen expression in the heart (picrosirius red)” value (compound 2 at 50 ng/kg/min) is “reverse”.
